BigSolDB 2.1

CCOc1ccccc1C(N)=O
solubility (mole fraction)
Conditions	288.15 K	293.15 K	298.15 K	303.15 K	308.15 K	313.15 K	318.15 K	323.15 K
in acetonitrile	0.00524	0.0075	0.0101	0.0132	0.0176	0.0231	0.0302	0.0398
in ethanol	0.011	0.0137	0.0171	0.0211	0.0265	0.0327	0.0402	0.0486
in ethyl acetate	0.00336	0.00459	0.00639	0.00835	0.0112	0.0147	0.0196	0.0251
in isobutanol	0.00816	0.00984	0.0126	0.0162	0.0208	0.0273	0.0354	0.0454
in methanol	0.0154	0.018	0.0225	0.027	0.0328	0.0402	0.0492	0.0597
in n-propanol	0.00832	0.0113	0.0142	0.0179	0.0227	0.0301	0.0389	0.0502
